According to patent US10213433B2 (AbbVie Inc., priority 2010, dated 2019):

These compounds were tested against Bcl-2 protein (Homo sapiens (Human), UniProt P10415) (assay: Bcl-2 binding TR-FRET (Time-Resolved Fluorescence-Resonance-Energy-Transfer) assay). Conditions: inhibition constant for binding to Bcl-2 protein.
Text: The smaller the Ki value, the greater is the binding affinity.

Sequence of Bcl-2 protein (P10415 whole entry): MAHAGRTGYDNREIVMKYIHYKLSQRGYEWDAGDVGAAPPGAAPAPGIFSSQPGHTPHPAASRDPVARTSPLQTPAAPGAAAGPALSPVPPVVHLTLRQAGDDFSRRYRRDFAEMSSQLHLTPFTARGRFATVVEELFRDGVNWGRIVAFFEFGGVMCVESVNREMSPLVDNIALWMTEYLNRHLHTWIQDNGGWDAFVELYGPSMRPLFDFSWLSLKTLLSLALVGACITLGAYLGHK

SMILES	Ki
CC(C)N1CCC2(CCC(c3ccc(Cl)cc3)=C(CN3CCN(c4ccc(C(=O)NS(=O)(=O)c5cnc(OCC6CCOCC6)c(Cl)c5)c(Oc5cnc6[nH]ccc6c5)c4)CC3)C2)CC1 [Compound 268, 4-(4-{[9-(4-chlorophenyl)-3-isopropyl-3-azaspiro[5.5]undec-8-en-8-yl]methyl}piperazin-1-yl)-N-{[5-chloro-6-(tetrahydro-2H-pyran-4-ylmethoxy)pyridin-3-yl]sulfonyl}-2-(1H-pyrrolo[2,3-b]pyridin-5-yloxy)benzamide]	< 0.01 nM
CN(C)CC(=O)N1CCC(F)(COc2ncc(S(=O)(=O)NC(=O)c3ccc(N4CCN(CC5=C(c6ccc(Cl)cc6)CC(C)(C)CC5)CC4)cc3Oc3cnc4[nH]ccc4c3)cc2Cl)CC1 [Compound 270, N-[(5-chloro-6-{[1-(N,N-dimethylglycyl)-4-fluoropiperidin-4-yl]methoxy}pyridin-3-yl)sulfonyl]-4-(4-{[2-(4-chlorophenyl)-4,4-dimethylcyclohex-1-en-1-yl]methyl}piperazin-1-yl)-2-(1H-pyrrolo[2,3-b]pyridin-5-yloxy)benzamide]	< 0.01 nM
CC1(C)CCC(CN2CCN(c3ccc(C(=O)NS(=O)(=O)c4ccc(OCCOC5CCOC5)c([N+](=O)[O-])c4)c(Oc4cnc5[nH]ccc5c4)c3)CC2)=C(c2ccc(Cl)cc2)C1 (stereo not shown) [Compound 275, 4-(4-{[2-(4-chlorophenyl)-4,4-dimethylcyclohex-1-en-1-yl]methyl}piperazin-1-yl)-N-({3-nitro-4-[2-(tetrahydrofuran-3-yloxy)ethoxy]phenyl}sulfonyl)-2-(1H-pyrrolo[2,3-b]pyridin-5-yloxy)benzamide]	< 0.01 nM
CC1(C)CCC(CN2CCN(c3ccc(C(=O)NS(=O)(=O)c4cnc(OCC5(F)CCN(C(CF)CF)CC5)c(Cl)c4)c(Oc4cnc5[nH]ccc5c4)c3)CC2)=C(c2ccc(Cl)cc2)C1 [Compound 282, N-[(5-chloro-6-{[1-(1,3-difluoropropan-2-yl)-4-fluoropiperidin-4-yl]methoxy}pyridin-3-yl)sulfonyl]-4-(4-{[2-(4-chlorophenyl)-4,4-dimethylcyclohex-1-en-1-yl]methyl}piperazin-1-yl)-2-(1H-pyrrolo[2,3-b]pyridin-5-yloxy)benzamide]	< 0.01 nM
CN1CCC(F)(COc2ccc(S(=O)(=O)NC(=O)c3ccc(N4CCN(CC5=C(c6ccc(Cl)cc6)CC(C)(C)CC5)CC4)cc3Oc3cnc4[nH]ccc4c3)cc2Cl)CC1 [Compound 283, N-({3-chloro-4-[(4-fluoro-1-methylpiperidin-4-yl)methoxy]phenyl}sulfonyl)-4-(4-{[2-(4-chlorophenyl)-4,4-dimethylcyclohex-1-en-1-yl]methyl}piperazin-1-yl)-2-(1H-pyrrolo[2,3-b]pyridin-5-yloxy)benzamide]	< 0.01 nM
CC1(C)CCC(CN2CCN(c3ccc(C(=O)NS(=O)(=O)c4cnc(OCC5(F)CCN(CC(F)F)CC5)c(Cl)c4)c(Oc4cnc5[nH]ccc5c4)c3)CC2)=C(c2ccc(Cl)cc2)C1 [Compound 285, N-[(5-chloro-6-{[1-(2,2-difluoroethyl)-4-fluoropiperidin-4-yl]methoxy}pyridin-3-yl)sulfonyl]-4-(4-{[2-(4-chlorophenyl)-4,4-dimethylcyclohex-1-en-1-yl]methyl}piperazin-1-yl)-2-(1H-pyrrolo[2,3-b]pyridin-5-yloxy)benzamide]	< 0.01 nM
CC1CN(c2ccc(C(=O)NS(=O)(=O)c3ccc(NCC4CCOCC4)c([N+](=O)[O-])c3)c(Oc3cnc4[nH]ccc4c3)c2)CCN1CC1=C(c2ccc(Cl)cc2)CC(C)(C)CC1 (stereo not shown) [Compound 290, 4-(4-{[2-(4-chlorophenyl)-4,4-dimethylcyclohex-1-en-1-yl]methyl}-3-methylpiperazin-1-yl)-N-({3-nitro-4-[(tetrahydro-2H-pyran-4-ylmethyl)amino]phenyl}sulfonyl)-2-(1H-pyrrolo[2,3-b]pyridin-5-yloxy)benzamide]	< 0.01 nM
